Columns and labels:
D(1A) dopamine receptor = D(1A) dopamine receptor (Homo sapiens, UniProt P21728)
Adenosine receptor A1 = target: T1, Adenosine receptor A1 (Homo sapiens, UniProt P30542)
T1 sequence (P30542 whole entry): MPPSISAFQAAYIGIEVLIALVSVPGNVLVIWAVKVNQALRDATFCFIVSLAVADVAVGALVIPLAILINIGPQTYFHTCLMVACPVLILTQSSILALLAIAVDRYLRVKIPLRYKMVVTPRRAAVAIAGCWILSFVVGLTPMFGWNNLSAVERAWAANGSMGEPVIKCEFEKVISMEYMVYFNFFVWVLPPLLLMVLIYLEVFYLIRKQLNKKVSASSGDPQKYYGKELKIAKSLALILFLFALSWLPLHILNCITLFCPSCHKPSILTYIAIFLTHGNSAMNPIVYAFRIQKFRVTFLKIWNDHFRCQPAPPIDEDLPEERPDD

Estrogen receptor beta = Estrogen receptor beta (Homo sapiens, UniProt Q92731)
Sequence of Estrogen receptor beta (Q92731 whole entry): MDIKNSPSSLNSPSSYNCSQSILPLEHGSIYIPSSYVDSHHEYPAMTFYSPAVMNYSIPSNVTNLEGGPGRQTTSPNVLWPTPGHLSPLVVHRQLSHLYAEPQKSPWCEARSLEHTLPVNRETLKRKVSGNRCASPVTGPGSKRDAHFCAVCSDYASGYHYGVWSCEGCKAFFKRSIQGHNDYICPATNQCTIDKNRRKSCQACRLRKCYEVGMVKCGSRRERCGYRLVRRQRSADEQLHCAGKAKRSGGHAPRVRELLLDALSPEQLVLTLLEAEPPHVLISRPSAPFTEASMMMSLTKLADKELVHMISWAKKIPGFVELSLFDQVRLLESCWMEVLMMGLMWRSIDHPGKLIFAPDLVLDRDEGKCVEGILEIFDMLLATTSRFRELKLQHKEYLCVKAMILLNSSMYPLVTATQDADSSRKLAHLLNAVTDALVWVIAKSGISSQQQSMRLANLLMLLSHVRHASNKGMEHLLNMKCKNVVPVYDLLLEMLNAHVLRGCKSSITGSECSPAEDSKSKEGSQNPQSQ

[1] = target: Neurotensin receptor type 1 (Homo sapiens, UniProt P30989)
Sequence of Neurotensin receptor type 1 (P30989 whole entry): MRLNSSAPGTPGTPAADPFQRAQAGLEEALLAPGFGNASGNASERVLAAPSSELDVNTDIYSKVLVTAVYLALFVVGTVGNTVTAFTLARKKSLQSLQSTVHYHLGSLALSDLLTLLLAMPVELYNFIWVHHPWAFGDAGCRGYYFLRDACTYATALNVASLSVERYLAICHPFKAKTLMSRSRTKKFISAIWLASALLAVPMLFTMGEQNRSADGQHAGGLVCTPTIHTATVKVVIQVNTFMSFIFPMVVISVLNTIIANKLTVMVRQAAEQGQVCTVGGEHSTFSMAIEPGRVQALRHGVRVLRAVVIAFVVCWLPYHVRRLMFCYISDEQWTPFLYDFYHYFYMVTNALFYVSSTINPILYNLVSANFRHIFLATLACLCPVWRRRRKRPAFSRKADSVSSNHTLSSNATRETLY

Histamine H2 receptor = Histamine H2 receptor (Homo sapiens, UniProt P25021)
Sequence of Histamine H2 receptor (P25021 whole entry): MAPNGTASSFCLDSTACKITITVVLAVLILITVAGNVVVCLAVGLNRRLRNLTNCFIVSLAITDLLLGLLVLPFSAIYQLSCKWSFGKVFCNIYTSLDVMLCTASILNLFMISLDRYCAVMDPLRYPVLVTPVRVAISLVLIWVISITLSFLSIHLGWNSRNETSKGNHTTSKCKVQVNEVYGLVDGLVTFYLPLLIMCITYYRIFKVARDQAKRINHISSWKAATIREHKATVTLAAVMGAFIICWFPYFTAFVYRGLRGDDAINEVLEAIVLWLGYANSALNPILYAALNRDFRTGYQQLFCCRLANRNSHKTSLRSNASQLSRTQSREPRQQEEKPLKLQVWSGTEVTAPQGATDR

[2] = target: T2, Alpha-1A adrenergic receptor (Homo sapiens, UniProt P35348)
T2 sequence (P35348 whole entry): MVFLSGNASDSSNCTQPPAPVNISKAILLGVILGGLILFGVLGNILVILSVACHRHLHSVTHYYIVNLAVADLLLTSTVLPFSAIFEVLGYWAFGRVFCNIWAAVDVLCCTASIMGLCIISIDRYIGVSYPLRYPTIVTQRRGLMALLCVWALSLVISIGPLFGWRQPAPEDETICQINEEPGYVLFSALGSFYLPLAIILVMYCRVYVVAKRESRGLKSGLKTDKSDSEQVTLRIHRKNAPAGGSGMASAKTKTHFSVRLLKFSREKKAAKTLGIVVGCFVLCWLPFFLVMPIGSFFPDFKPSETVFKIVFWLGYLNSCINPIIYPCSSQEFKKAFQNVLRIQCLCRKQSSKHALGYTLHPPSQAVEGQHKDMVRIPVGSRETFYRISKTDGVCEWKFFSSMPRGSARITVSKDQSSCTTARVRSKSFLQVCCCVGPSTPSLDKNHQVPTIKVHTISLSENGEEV

[3] = target: 5-hydroxytryptamine receptor 7 (Homo sapiens, UniProt P34969)
Sequence of 5-hydroxytryptamine receptor 7 (P34969 whole entry): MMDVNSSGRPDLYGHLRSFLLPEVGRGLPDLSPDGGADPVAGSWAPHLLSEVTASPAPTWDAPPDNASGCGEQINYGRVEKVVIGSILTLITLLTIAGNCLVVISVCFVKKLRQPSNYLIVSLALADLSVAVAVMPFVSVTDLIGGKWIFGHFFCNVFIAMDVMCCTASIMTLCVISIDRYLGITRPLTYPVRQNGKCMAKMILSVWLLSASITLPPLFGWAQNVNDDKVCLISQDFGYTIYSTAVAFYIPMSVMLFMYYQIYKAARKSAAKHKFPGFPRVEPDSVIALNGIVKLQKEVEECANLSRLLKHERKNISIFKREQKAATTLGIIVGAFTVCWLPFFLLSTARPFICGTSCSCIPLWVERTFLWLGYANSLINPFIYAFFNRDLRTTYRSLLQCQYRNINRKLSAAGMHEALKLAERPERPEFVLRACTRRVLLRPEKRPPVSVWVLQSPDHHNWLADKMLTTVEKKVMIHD

Androgen receptor = target: T3, Androgen receptor (Rattus norvegicus, UniProt P15207); type: functional
T3 sequence (P15207 whole entry): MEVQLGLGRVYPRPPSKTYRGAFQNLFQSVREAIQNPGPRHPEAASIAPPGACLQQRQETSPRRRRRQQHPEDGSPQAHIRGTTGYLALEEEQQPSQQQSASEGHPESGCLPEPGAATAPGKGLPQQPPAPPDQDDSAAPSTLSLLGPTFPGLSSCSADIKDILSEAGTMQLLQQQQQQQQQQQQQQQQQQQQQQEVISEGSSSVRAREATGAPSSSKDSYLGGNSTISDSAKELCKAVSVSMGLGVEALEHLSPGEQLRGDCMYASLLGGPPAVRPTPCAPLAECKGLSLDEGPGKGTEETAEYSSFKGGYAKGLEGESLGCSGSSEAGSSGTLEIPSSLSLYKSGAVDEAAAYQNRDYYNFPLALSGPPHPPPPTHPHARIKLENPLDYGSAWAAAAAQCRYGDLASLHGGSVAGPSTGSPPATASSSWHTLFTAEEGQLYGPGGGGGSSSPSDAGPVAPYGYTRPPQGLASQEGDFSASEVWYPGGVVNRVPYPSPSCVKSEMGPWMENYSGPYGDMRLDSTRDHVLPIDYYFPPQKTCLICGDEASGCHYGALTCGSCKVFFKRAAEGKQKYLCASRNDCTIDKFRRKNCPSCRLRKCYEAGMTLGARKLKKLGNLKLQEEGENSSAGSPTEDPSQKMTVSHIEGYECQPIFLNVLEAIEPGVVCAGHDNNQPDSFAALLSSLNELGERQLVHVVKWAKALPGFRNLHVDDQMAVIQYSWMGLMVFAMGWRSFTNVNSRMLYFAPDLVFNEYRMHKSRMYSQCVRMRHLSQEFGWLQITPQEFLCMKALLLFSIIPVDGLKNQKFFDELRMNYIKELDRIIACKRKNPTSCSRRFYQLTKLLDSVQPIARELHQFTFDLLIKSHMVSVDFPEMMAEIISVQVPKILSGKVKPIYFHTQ

Substance-P receptor = Substance-P receptor (Homo sapiens, UniProt P25103)
Sequence of Substance-P receptor (P25103 whole entry): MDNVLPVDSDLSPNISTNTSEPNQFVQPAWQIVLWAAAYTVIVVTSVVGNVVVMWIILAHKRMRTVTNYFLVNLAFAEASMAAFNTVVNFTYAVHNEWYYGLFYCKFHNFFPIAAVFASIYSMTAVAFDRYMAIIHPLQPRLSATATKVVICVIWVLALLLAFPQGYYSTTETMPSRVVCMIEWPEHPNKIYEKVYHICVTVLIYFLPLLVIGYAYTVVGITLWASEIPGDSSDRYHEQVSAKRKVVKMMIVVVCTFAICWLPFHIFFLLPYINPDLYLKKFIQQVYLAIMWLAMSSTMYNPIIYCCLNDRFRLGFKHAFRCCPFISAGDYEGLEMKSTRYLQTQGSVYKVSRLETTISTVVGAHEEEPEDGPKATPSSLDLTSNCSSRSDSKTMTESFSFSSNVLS

Histamine H1 receptor = Histamine H1 receptor (Homo sapiens, UniProt P35367); type: functional, cell-based
Sequence of Histamine H1 receptor (P35367 whole entry): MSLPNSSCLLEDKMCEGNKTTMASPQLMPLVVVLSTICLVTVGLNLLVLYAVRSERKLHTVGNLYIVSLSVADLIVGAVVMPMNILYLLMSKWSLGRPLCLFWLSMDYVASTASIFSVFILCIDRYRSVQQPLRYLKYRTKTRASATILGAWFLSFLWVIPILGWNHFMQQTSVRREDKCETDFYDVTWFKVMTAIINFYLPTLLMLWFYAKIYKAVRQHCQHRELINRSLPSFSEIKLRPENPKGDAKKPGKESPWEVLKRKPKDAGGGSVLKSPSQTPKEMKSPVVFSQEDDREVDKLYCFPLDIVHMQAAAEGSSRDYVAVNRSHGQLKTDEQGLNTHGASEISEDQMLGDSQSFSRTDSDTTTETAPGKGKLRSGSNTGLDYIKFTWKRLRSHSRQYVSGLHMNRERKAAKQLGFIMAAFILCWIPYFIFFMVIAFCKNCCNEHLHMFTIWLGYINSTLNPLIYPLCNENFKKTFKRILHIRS
Also: assay procedure not described here.

Sequence of D(1A) dopamine receptor (P21728 whole entry): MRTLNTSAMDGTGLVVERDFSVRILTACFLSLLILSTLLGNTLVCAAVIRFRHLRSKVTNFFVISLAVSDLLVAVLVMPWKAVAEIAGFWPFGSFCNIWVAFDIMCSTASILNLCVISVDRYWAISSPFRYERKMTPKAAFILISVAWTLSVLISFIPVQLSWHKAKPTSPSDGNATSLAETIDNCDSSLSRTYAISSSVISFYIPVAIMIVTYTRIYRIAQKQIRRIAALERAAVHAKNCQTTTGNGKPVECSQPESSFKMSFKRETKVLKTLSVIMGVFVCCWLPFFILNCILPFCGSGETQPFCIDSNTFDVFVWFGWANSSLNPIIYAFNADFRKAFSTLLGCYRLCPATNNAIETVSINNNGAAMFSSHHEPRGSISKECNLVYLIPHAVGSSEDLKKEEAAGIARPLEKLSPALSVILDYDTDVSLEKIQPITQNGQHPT

CN(CC1(C)CCCO1)S(=O)(=O)c1ccc(Cl)c(S(N)(=O)=O)c1 (configuration not stated) [MEFRUSIDE]
AC50 (D(1A) dopamine receptor): > 30 µM | AC50 (Adenosine receptor A1): > 30 µM

CO[C@H]1/C=C/O[C@@]2(C)Oc3c(C)c(O)c4c(O)c(c(/C=N/N5CCN(C)CC5)c(O)c4c3C2=O)NC(=O)/C(C)=C\C=C\[C@H](C)[C@H](O)[C@@H](C)[C@@H](O)[C@@H](C)[C@H](OC(C)=O)[C@@H]1C [RIFAMPIN]
AC50 (Estrogen receptor beta): > 30 µM | AC50 [1]: > 30 µM | AC50 (Histamine H2 receptor): > 10 µM | AC50 [2]: 2.33 µM | AC50 [3]: > 10 µM

CC(=O)O[C@]1(C(C)=O)CC[C@H]2[C@@H]3C=C(C)C4=CC(=O)CC[C@@H]4[C@H]3CC[C@@]21C [NOMEGESTROL ACETATE]
AC50 (Androgen receptor): > 30 µM | AC50 (Adenosine receptor A1): > 30 µM

O=C1C(CC[S+]([O-])c2ccccc2)C(=O)N(c2ccccc2)N1c1ccccc1 (configuration not stated) [SULFINPYRAZONE]
AC50 [2]: > 10 µM

C/C=C/C/C=C/CCC(=O)[C@H]1O[C@H]1C(N)=O [CERULENIN]
AC50 (Adenosine receptor A1): > 30 µM

CC(C)Cc1ccc(C(C)C(=O)O)cc1 (configuration not stated) [IBUPROFEN]
AC50 (Substance-P receptor): > 10 µM | AC50 (Estrogen receptor beta): > 30 µM | AC50 [1]: > 30 µM | AC50 (Histamine H2 receptor): > 10 µM | AC50 [2]: > 10 µM | AC50 [3]: > 10 µM

O=C(O)CO [GLYCOLIC ACID]
AC50 (D(1A) dopamine receptor): > 30 µM | AC50 (Adenosine receptor A1): > 30 µM

CC(N)C12CC3CC(CC(C3)C1)C2 (configuration not stated) [RIMANTADINE]
AC50 [2]: > 10 µM

COc1cc2nc(N3CCN(C(=O)C4CCCO4)CC3)nc(N)c2cc1OC (configuration not stated) [TERAZOSIN]
AC50 (Substance-P receptor): > 10 µM | AC50 (Estrogen receptor beta): > 30 µM | AC50 [1]: > 30 µM | AC50 (Adenosine receptor A1): > 30 µM | AC50 (Histamine H2 receptor): > 10 µM

FC(F)(F)c1ccc(CNc2ccc(Cc3c[nH]c4ncc(Cl)cc34)cn2)cn1 [PEXIDARTINIB]
AC50 (D(1A) dopamine receptor): 5.53 µM | AC50 (Adenosine receptor A1): 27.7 µM

CCc1nc(C(N)=O)c(Nc2ccc(N3CCC(N4CCN(C)CC4)CC3)c(OC)c2)nc1NC1CCOCC1 [GILTERITINIB]
AC50 (Adenosine receptor A1): > 30 µM

Nc1ccc(S(=O)(=O)Nc2nccs2)cc1 [SULFATHIAZOLE]
AC50 (Substance-P receptor): > 10 µM | AC50 [1]: > 30 µM | AC50 (Histamine H2 receptor): > 10 µM | AC50 [2]: 5.1 µM

C#C[C@]1(O)CC[C@H]2[C@@H]3CCC4=CC(=O)CC[C@@H]4[C@H]3C(=C)C[C@@]21CC [ETONOGESTREL]
AC50 (D(1A) dopamine receptor): > 30 µM | AC50 (Adenosine receptor A1): > 30 µM

N#Cc1ccc2c(c1)N(CCCN1CCC(O)CC1)c1ccccc1S2 [PERICIAZINE]
AC50 (Adenosine receptor A1): > 30 µM

CN(C)CCc1c[nH]c2ccc(Cn3cncn3)cc12 [RIZATRIPTAN]
AC50 (Substance-P receptor): > 10 µM | AC50 (Estrogen receptor beta): > 30 µM | AC50 [1]: > 30 µM | AC50 (Histamine H2 receptor): > 10 µM | AC50 (Histamine H1 receptor): > 30 µM | AC50 [2]: > 10 µM | AC50 [3]: > 10 µM

COc1ccccc1Oc1c(NS(=O)(=O)c2ccc(C(C)(C)C)cc2)nc(-c2ncccn2)nc1OCCO [BOSENTAN]
AC50 (Estrogen receptor beta): > 30 µM | AC50 [1]: > 30 µM | AC50 (Histamine H2 receptor): > 10 µM | AC50 (Histamine H1 receptor): > 30 µM | AC50 [2]: > 10 µM

C[C@]12C=CC(=O)N[C@@H]1CC[C@@H]1[C@@H]2CC[C@]2(C)[C@@H](C(=O)Nc3cc(C(F)(F)F)ccc3C(F)(F)F)CC[C@@H]12 [DUTASTERIDE]
AC50 [2]: > 10 µM

CC(C)(O)CNc1nc(Nc2ccnc(C(F)(F)F)c2)nc(-c2cccc(C(F)(F)F)n2)n1 [ENASIDENIB]
AC50 (D(1A) dopamine receptor): > 30 µM | AC50 (Adenosine receptor A1): 1.29 µM

Cc1onc(-c2ccccc2)c1-c1ccc(S(N)(=O)=O)cc1 [VALDECOXIB]
AC50 (Substance-P receptor): > 10 µM | AC50 (Estrogen receptor beta): > 30 µM | AC50 [1]: > 30 µM | AC50 (Histamine H2 receptor): > 10 µM | AC50 [2]: > 10 µM | AC50 [3]: > 10 µM

CCCN(CCC)C(=O)Cc1c(-c2ccc(Cl)cc2)nc2ccc(Cl)cn12 [ALPIDEM]
AC50 (Adenosine receptor A1): 14.4 µM | AC50 (Histamine H2 receptor): > 10 µM | AC50 [2]: > 30 µM | AC50 [3]: > 10 µM

C[C@H]1c2cccc(O)c2C(=O)C2=C(O)[C@]3(O)C(=O)C(C(N)=O)=C(O)[C@@H](N(C)C)[C@@H]3[C@@H](O)[C@@H]21 [DOXYCYCLINE]
AC50 (Substance-P receptor): > 10 µM | AC50 [1]: > 30 µM | AC50 (Histamine H2 receptor): > 10 µM | AC50 [2]: 3.4 µM

CC(S)C(=O)NCC(=O)O (configuration not stated) [TIOPRONIN]
AC50 (Androgen receptor): > 30 µM

CCOC(=O)c1c(C)cc2c(CO)n[nH]c(=O)c2c1C [OXAGRELATE]
AC50 (D(1A) dopamine receptor): > 30 µM | AC50 (Adenosine receptor A1): 25.9 µM

CN1C(C(=O)Nc2ccccn2)=C(O)c2ccccc2S1(=O)=O [PIROXICAM]
AC50 (D(1A) dopamine receptor): > 30 µM | AC50 (Adenosine receptor A1): > 30 µM | AC50 [2]: > 30 µM

CCCC(CCC)C(=O)O [VALPROIC ACID]
AC50 (Substance-P receptor): > 10 µM | AC50 [1]: > 30 µM | AC50 (Adenosine receptor A1): > 30 µM | AC50 [3]: > 10 µM

CC(C(=O)O)c1ccc2c(c1)[nH]c1ccc(Cl)cc12 (configuration not stated) [CARPROFEN]
AC50 [2]: > 10 µM

CC[C@@]1(O)C(=O)OCc2c1cc1n(c2=O)Cc2cc3c([N+](=O)[O-])cccc3nc2-1 [RUBITECAN]
AC50 (D(1A) dopamine receptor): > 30 µM | AC50 (Adenosine receptor A1): > 30 µM

OC[C@H]1O[C@@](CO)(O[C@H]2O[C@H](CO)[C@@H](O)[C@H](O)[C@H]2O)[C@@H](O)[C@@H]1O [SUCROSE]
AC50 (D(1A) dopamine receptor): > 30 µM | AC50 (Adenosine receptor A1): > 30 µM | AC50 (Histamine H1 receptor): > 30 µM

COc1ccc(CC2c3cc(OC)c(OC)cc3CC[N+]2(C)CCC(=O)OCCCCCOC(=O)CC[N+]2(C)CCc3cc(OC)c(OC)cc3C2Cc2ccc(OC)c(OC)c2)cc1OC (configuration not stated)
AC50 (Androgen receptor): > 30 µM | AC50 [2]: > 30 µM

COc1ccccc1OCCNCC(O)COc1cccc2[nH]c3ccccc3c12 (configuration not stated) [CARVEDILOL]
AC50 (Substance-P receptor): 0.481 µM | AC50 (Estrogen receptor beta): > 30 µM | AC50 (Androgen receptor): > 30 µM | AC50 [1]: > 30 µM | AC50 (Histamine H2 receptor): 1.56 µM | AC50 [2]: 0.0194 µM | AC50 [3]: 1.58 µM

OC[C@@H](O)[C@@H](O)[C@H](O)[C@@H](O)CO [SORBITOL]
AC50 (D(1A) dopamine receptor): > 30 µM | AC50 (Adenosine receptor A1): > 30 µM

O=C1CN(/N=C/c2ccc(-c3ccc([N+](=O)[O-])cc3)o2)C(O)=N1 [DANTROLENE]
AC50 [2]: > 10 µM

C=C[C@H]1C[N@@]2CC[C@H]1C[C@@H]2[C@@H](O)c1ccnc2ccc(OC)cc12 [QUINIDINE]
AC50 (Histamine H1 receptor): > 30 µM

CC[C@H]1OC(=O)[C@H](C)C(=O)[C@H](C)[C@@H](O[C@@H]2O[C@H](C)C[C@H](N(C)C)[C@H]2O)[C@](C)(OC)C[C@@H](C)C(=O)[C@H](C)[C@H]2N(CCCCn3cnc(-c4cccnc4)c3)C(=O)O[C@]12C [TELITHROMYCIN]
AC50 (Adenosine receptor A1): > 30 µM

CC(=O)Oc1cc(C(F)(F)F)ccc1C(=O)O [TRIFLUSAL]
AC50 (Adenosine receptor A1): > 30 µM

C[C@@H](NCCCc1cccc(C(F)(F)F)c1)c1cccc2ccccc12
AC50 (Androgen receptor): > 30 µM | AC50 (Histamine H1 receptor): > 30 µM

From ChEMBL document CHEMBL5291721, “A preclinical secondary pharmacology resource illuminates target-adverse drug reaction associations of marketed drugs” (Nat Commun, 2023)
